Legend:
Assay in all cases: relative viability (nuclei count vs DMSO), 5 days (fraction); higher = more cells survive
[1] = compound: C1CNCCC1C2=CC(=NN2)C3=CC=NC=C3 + CS(=O)(=O)N1CCN(Cc2cc3nc(-c4cccc5[nH]ncc45)nc(N4CCOCC4)c3s2)CC1 [Pictilisib] (partner 1 µM)
Outline: (§1)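 One day after seeding in 1536-well plates, lung cancer cell lines were dosed by pin tool. Dosing was either single-drug or a fixed anchor-drug dose plus five library-drug doses (not always all listed) in √10 steps. After 5 days, nuclei were stained in one fix-and-stain step and counted on 4× images, and relative viability is the nuclei count of treated wells over that of vehicle wells, given as the median of duplicate plates.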

[2] = compound: C[C@@H](N)c1ccc(C(=O)Nc2ccnc3[nH]ccc23)cc1 + N=C(N)NC(=N)NCCc1ccccc1 [Phenformin] (partner 250 µM)
Outline: as §1

[3] = compound: C[C@@H](N)c1ccc(C(=O)Nc2ccnc3[nH]ccc23)cc1 + O=C(c1cc(Cc2n[nH]c(=O)c3ccccc23)ccc1F)N1CCN(C(=O)C2CC2)CC1 [Olaparib] (partner 8 µM)
Outline: as §1

Tanzisertib + Crizotinib = compound: O[C@H]1CC[C@H](Nc2ncc3nc(Nc4c(F)cc(F)cc4F)n([C@H]4CCOC4)c3n2)CC1 [Tanzisertib] + C[C@@H](Oc1cc(-c2cnn(C3CCNCC3)c2)cnc1N)c1c(Cl)ccc(F)c1Cl [Crizotinib] (partner 1 µM)
Outline: as §1

Row | Cell Line | relative viability ([1]; first compound 0.08 µM) | relative viability ([1]; first compound 0.8 µM) | relative viability ([1]; first compound 2.53 µM) | relative viability ([1]; first compound 8 µM) | relative viability ([2]; first compound 0.04 µM) | relative viability ([2]; first compound 0.1265 µM) | relative viability ([2]; first compound 0.4 µM) | relative viability ([2]; first compound 1.265 µM) | relative viability ([2]; first compound 4 µM) | relative viability ([3]; first compound 0.04 µM) | relative viability ([3]; first compound 0.1265 µM) | relative viability ([3]; first compound 0.4 µM) | relative viability ([3]; first compound 1.265 µM) | relative viability ([3]; first compound 4 µM) | relative viability (Tanzisertib + Crizotinib; first compound 0.08 µM) | relative viability (Tanzisertib + Crizotinib; first compound 0.253 µM) | relative viability (Tanzisertib + Crizotinib; first compound 0.8 µM) | relative viability (Tanzisertib + Crizotinib; first compound 2.53 µM) | relative viability (Tanzisertib + Crizotinib; first compound 8 µM)
1 | 201T | 0.724 | 0.664 | 0.7 | 0.681 | 0.427 | 0.442 | 0.462 | 0.428 | 0.473 | 0.867 | 0.883 | 0.818 | 0.895 | 0.949 | 1.04 | 1.04 | 1.02 | 1.05 | 0.996
2 | A549 | 0.509 | 0.654 | 0.575 | 0.548 | 0.0717 | 0.256 | 0.279 | – | 0.164 | 0.303 | 0.251 | 0.575 | 0.0626 | 0.465 | 0.852 | 0.633 | 0.778 | 0.913 | 0.714
3 | A-427 | 0.707 | 0.891 | 0.685 | 0.8 | 0.287 | 0.402 | 0.332 | – | 0.284 | 0.698 | 0.817 | 0.762 | 0.589 | 0.649 | 0.995 | 0.85 | 0.931 | 0.902 | 0.846
4 | ABC-1 | 0.735 | 0.812 | 0.865 | 0.869 | 0.254 | 0.262 | 0.227 | – | 0.243 | 0.511 | 0.752 | 0.942 | 0.953 | 0.693 | 1.4 | 1.07 | 1.29 | 1.26 | 1.26
5 | BEN | 0.518 | 0.587 | 0.555 | 0.722 | 0.279 | 0.265 | 0.258 | 0.267 | 0.248 | 1.04 | 1.08 | 1.11 | 1.27 | 0.542 | 0.846 | 0.775 | 0.914 | 0.845 | 0.878
6 | CAL-12T | 0.619 | 0.549 | 0.481 | 0.616 | 0.674 | 0.609 | 0.665 | 0.538 | 0.56 | 0.702 | 0.882 | 0.815 | 0.841 | 0.724 | 0.677 | 0.715 | 0.684 | 0.547 | 0.686
7 | COR-L23 | 0.824 | 0.903 | 0.924 | 0.832 | 0.44 | 0.526 | 0.442 | 0.28 | 0.277 | 0.296 | 0.341 | 0.322 | 0.277 | 0.176 | 0.861 | 0.669 | 0.638 | 0.701 | 0.709
8 | COR-L 105 | 0.421 | 0.429 | 0.398 | 0.396 | 0.446 | 0.492 | 0.523 | 0.423 | 0.377 | 0.605 | 0.636 | 0.763 | 0.717 | 0.564 | 0.81 | 0.986 | 0.822 | 0.855 | 0.622
9 | Calu-6 | 0.843 | 1.02 | 0.971 | 0.904 | – | – | – | – | – | 0.602 | 0.592 | 0.547 | 0.533 | 0.45 | 0.79 | 0.785 | 0.782 | 0.756 | 0.712
10 | ChaGo-K-1 | 0.51 | 0.978 | 0.431 | 0.681 | 0.495 | 0.493 | 0.46 | 0.346 | 0.507 | 0.418 | 0.426 | 0.414 | 0.438 | 0.345 | 1.21 | 1.13 | 1.07 | 1.09 | 1.02
11 | EBC-1 | 0.447 | 0.425 | 0.364 | 0.409 | – | – | – | – | – | 0.847 | 0.713 | 0.678 | 0.683 | 0.583 | 0.206 | 0.168 | 0.195 | 0.178 | 0.185
12 | EKVX | 0.42 | 0.516 | 0.42 | 0.447 | 0.228 | 0.245 | 0.241 | 0.124 | 0.222 | 0.993 | 1.14 | 1.03 | 0.923 | 0.727 | 0.895 | 0.867 | 0.967 | 0.898 | 0.853
13 | EMC-BAC-2 | 0.449 | 0.613 | 0.544 | 0.517 | 0.41 | 0.553 | 0.469 | 0.404 | 0.409 | – | 0.516 | 0.477 | 0.505 | 0.425 | 0.799 | 0.74 | 0.705 | 0.763 | 0.747
14 | EPLC-272H | 0.384 | 0.361 | 0.285 | 0.337 | 0.365 | 0.44 | 0.279 | 0.198 | 0.241 | 0.729 | 1.17 | 0.808 | 0.703 | 0.394 | 0.958 | 0.862 | 0.864 | 0.874 | 0.872
15 | H3255 | 0.469 | 0.477 | 0.511 | 0.442 | 0.396 | 0.332 | 0.337 | 0.348 | 0.322 | 0.533 | 0.607 | 0.606 | 0.558 | 0.48 | 0.933 | 0.855 | 1.01 | 0.875 | 0.662
16 | HARA | 0.419 | 0.421 | 0.437 | 0.402 | – | 0.481 | 0.495 | – | 0.355 | 1.02 | 0.907 | 1.32 | 0.966 | 0.819 | 1.12 | 1.05 | 1.06 | 1.06 | 1.08
17 | HCC-15 | 0.738 | 0.772 | 0.722 | 0.75 | 0.447 | 0.465 | 0.437 | – | 0.424 | 0.744 | 0.731 | 0.726 | 0.693 | 0.743 | 0.877 | 0.811 | 0.88 | 0.818 | 0.872
18 | HCC-44 | 0.585 | 0.648 | 0.716 | 0.593 | 0.138 | 0.172 | 0.285 | 0.1 | 0.218 | 0.949 | 0.966 | 0.966 | 1.05 | 0.889 | 0.907 | 0.824 | 0.822 | 0.89 | 0.817

Reference: the supplement of paper PMC10307832
